In patent US5405869A, “Anti-tumor platinum complexes” (Istituto Nazionale per la Ricerca sul Cancro, priority 1991, dated 1995):

Experiments:
leukemia cells Jurkat = settings: read-out: ID50, incorporation of tritiated thymidine at 48 hours
Description: (§1) The evaluation of the cytotoxic activities of the compounds (1) was carried out "in vitro" measuring, according to known methods, the inhibition of the colony formation, the cell viability (Trypan blu) and the incorporation of tritiated thymidine in tumoral and normal cells.

leukemia cells K562 = settings: read-out: ID50; K562, incorporation of tritiated thymidine at 48 hours
Description: as §1

leukemia cells P388 = settings: read-out: ID50; P388, incorporation of tritiated thymidine at 48 hours
Description: as §1

Substance: cis-diamino-chloro-(4-amino)benzoate-platinum(II) hydrochloride [Compound 1A]
- IC50 (leukemia cells Jurkat): 21.3 µM
- IC50 (leukemia cells K562): 26.3 µM
- IC50 (leukemia cells P388): 11.4 µM
